Counter-ions that a name gives are not always drawn.
System: kidney
Test: Transcriptional profiling on Affymetrix GeneChips, single dose, naïve mice: kidney
Assay type: in vivo, C57BL/6 mice
Conditions: for Number of differentially expressed genes identified: Kidney: Naïve, Single Dose, 100 mpk, vs Vehicle
Experimental: Treated mice were sacrificed at 2, 7, or 12 hours. Tissues (liver, spleen, kidney, jejunum, cortex, hippocampus, striatum and whole blood) were collected and analyzed by transcriptional profiling on mouse Affymetrix GeneChips.
Tissues (liver, spleen, kidney, jejunum, cortex, hippocampus, striatum and whole blood) were collected and analyzed by transcriptional profiling on mouse Affymetrix GeneChips.
Animals were exposed to CO2 and whole blood collected via cardiac puncture. Two 100 μl aliquots of whole blood were collected in 1.5 mL microcentrifuge tubes and snap frozen in liquid nitrogen. Peripheral (liver, spleen, kidney and jejunum) and CNS brain (cerebellum, hippocampus, striatum and cortex) tissues were harvested and snap frozen in liquid nitrogen, with special care taken to collect tissues of similar size and from the same location. All samples were stored at −80° C. until RNA extraction was conducted.
For RNA preparation, frozen tissues were placed in 2 mL RNAse-free 96-well blocks with 1.5 mL QIAzol Lysis Reagent (QIAgen) and a 3.2 mm stainless steel bead (BioSpec Products, Bartlesville, Okla.). Tissues were disrupted for four cycles of 45 seconds in a Mini-Beadbeater (Biospec Products). RNA was extracted in chloroform and the aqueous phase was mixed with an equal volume of 70% ethanol. Extracted RNA was applied to RNeasy 96 plates and purified by the spin method according to the manufacturer's protocol (RNeasy 96 Universal Tissue Protocol, QIAgen, Hilden Germany).
Automated sample amplifications and biotin labelings were carried out using the NuGEN Ovation RNA Amplification system V2 (Cat #3100), Ovation WB reagent (Cat #1300) and Encore Biotin module (Cat #4200) (NuGEN Technologies, Inc, San Carlos, Calif.) according to manufacturer's recommendations using an Arrayplex automated liquid handler (Beckman Coulter, Indianapolis, Ind.). Two micrograms of biotin labeled sscDNA probe were hybridized to Affymetrix GeneChip Affymetrix HT_MG-430_PM plate arrays with modified conditions as described in Allaire et al. Washing and staining of the hybridized arrays were completed as described in the GeneChip Expression analysis technical manual for HT plate arrays using the Genechip® Array Station (Affymetrix, Santa Clara, Calif.) with modifications as described in Allaire et al. The processed GeneChip® plate arrays were scanned using GeneTitan scanner (Affymetrix, Santa Clara, Calif.).
Affymetrix scans were subject to quality control (QC) measures. These tests included a visual inspection of the distribution of raw signal intensities and an assessment of RNA degradation, relative log expression (RLE), and normalized unsealed standard error (NUSE). All sample scans that passed these QC metrics were included in the analysis.
All CEL files were subjected to GC-content-based Robust Multi-array Average (GCRMA) normalization (version 2.20.0) (Irizarry R A, et al. Nucleic Acids Res 2003; 31:e15; Li C, et al. Genome Biol 2001; 2:[…]0032). Expression levels were log (base 2) transformed.
All calculations and analyses were carried out using R (version 2.11.1) and Bioconductor computational tools (Gentleman R. Springer Science+Business Media 2005).

COC(=O)/C=C/C(=O)O [MMF, monomethyl fumarate]
FC Hfe 1422645_PM_at (100MMF-vs-Veh, 12 h): 1.56
FC Ikbkg 1421209_PM_s_at (100MMF-vs-Veh, 12 h): 1.57
FC Mep1b 1418215_PM_at (100MMF-vs-Veh, 12 h): −1.55
FC Mthfd2 1419253_PM_at (100MMF-vs-Veh, 12 h): 1.65
FC Myo5a 1419754_PM_at (100MMF-vs-Veh, 12 h): −3.09
FC Nek6 1423596_PM_at (100MMF-vs-Veh, 12 h): 1.69
FC Pnkd 1418746_PM_at (100MMF-vs-Veh, 12 h): 1.51
FC Slc6a4 1417150_PM_at (100MMF-vs-Veh, 12 h): 1.58
FC Slc38a3 1418706_PM_at (100MMF-vs-Veh, 12 h): 1.81
FC Smcp 1418358_PM_at (100MMF-vs-Veh, 12 h): −2.49
FC Srxn1 (1419942_PM_at) (100MMF-vs-Veh, 12 h): 1.96
FC Tfrc 1422966_PM_a_at (100MMF-vs-Veh, 12 h): 1.51
FC Tiam2 1423186_PM_at (100MMF-vs-Veh, 12 h): 1.84
FC Txnrd1 1421529_PM_a_at (100MMF-vs-Veh, 12 h): 1.55
Number of genes, DMF Only / MMF Only (Kidney): 94
Asns (1451095_PM_at) differential expression (Kidney, 2 hr): 2.46
Cbr3 (1427912_PM_at) differential expression (Kidney, 2 hr): 2.96
Gdf15 (1418949_PM_at) differential expression (Kidney, 2 hr): 5.50
Maf (probe set 1437473_PM_at) differential expression (Kidney, 2 hr): −1.56
Mthfd2 (1419253_PM_at) differential expression (Kidney, 2 hr): 2.03
Number of differentially expressed genes identified: Kidney (2 h after last dosing): 274
Number of differentially expressed genes identified: Kidney (7 h after last dosing): 156
Number of differentially expressed genes identified: Kidney (12 h after last dosing): 151
Asns (1451095_PM_at) differential expression (kidney, 7 hr): 2.13
Cbr1 (probe set 1460196_PM_at) differential expression (kidney, 7 hr): 1.58
Cbr3 (1427912_PM_at) differential expression (kidney, 7 hr): 9.54
Cul9 (probe set 1439866_PM_at) differential expression (kidney, 7 hr): −1.52
Dbp (probe set 1418174_PM_at) differential expression (kidney, 7 hr): −1.73
Fam107a (probe set 1435918_PM_at) differential expression (kidney, 7 hr): −1.77
Frem2 (probe set 1457038_PM_at) differential expression (kidney, 7 hr): −1.66
Gdf15 (1418949_PM_at) differential expression (kidney, 7 hr): 1.98
Gpr135 (probe set 1441944_PM_s_at) differential expression (kidney, 7 hr): 1.66
Ido2 (probe set 1425778_PM_at) differential expression (kidney, 7 hr): −1.52
Il18 (probe set 1417932_PM_at) differential expression (kidney, 7 hr): −1.52
Kcnh1 (probe set 1435994_PM_at) differential expression (kidney, 7 hr): −1.61
Kif20b (probe set 1439695_PM_a_at) differential expression (kidney, 7 hr): −2.61
Mthfd2 (1419253_PM_at) differential expression (kidney, 7 hr): 1.89
Nmral1 (probe set 1430530_PM_s_at) differential expression (kidney, 7 hr): −1.52
Ppm1e (probe set 1434990_PM_at) differential expression (kidney, 7 hr): −1.53
Rab38 (probe set 1417700_PM_at) differential expression (kidney, 7 hr): −1.57
Slc48a1 (probe set 1450410_PM_a_at) differential expression (kidney, 7 hr): 1.58
Sphk2 (probe set 1426230_PM_at) differential expression (kidney, 7 hr): −1.54
Tmem86a (probe set 1428758_PM_at) differential expression (kidney, 7 hr): −1.56
Wdr90 (probe set 1426767_PM_at) differential expression (kidney, 7 hr): −1.58
Acot1 (probe set 1449065_PM_at) differential expression (kidney, 12 hr): 1.59
Acot1 /// Acot2 (probe set 1422997_PM_s_at) differential expression (kidney, 12 hr): 1.51
Acsm2 (probe set 1427224_PM_at) differential expression (kidney, 12 hr): −1.52
Aldh1a1 (probe set 1416468_PM_at) differential expression (kidney, 12 hr): 2.21
Arhgap26 (probe set 1440688_PM_at) differential expression (kidney, 12 hr): −1.57
Asns (1451095_PM_at) differential expression (kidney, 12 hr): 2.49
Atp11a (probe set 1421167_PM_at) differential expression (kidney, 12 hr): −1.62
B4galt5 (probe set 1433617_PM_s_at) differential expression (kidney, 12 hr): −1.51
C8a (probe set 1428012_PM_at) differential expression (kidney, 12 hr): −1.51
Cbr1 (probe set 1460196_PM_at) differential expression (kidney, 12 hr): 2.10
Cbr3 (1427912_PM_at) differential expression (kidney, 12 hr): 7.02
Cldn1 (probe set 1437932_PM_a_at) differential expression (kidney, 12 hr): 1.57
Dio3os (probe set 1435121_PM_at) differential expression (kidney, 12 hr): 1.60
Dpys (probe set 1436291_PM_a_at) differential expression (kidney, 12 hr): 1.51
Ep400 (probe set 1449610_PM_at) differential expression (kidney, 12 hr): −1.67
Fga (probe set 1424279_PM_at) differential expression (kidney, 12 hr): 1.79
Gbe1 (probe set 1420654_PM_a_at) differential expression (kidney, 12 hr): 1.51
Gdf15 (1418949_PM_at) differential expression (kidney, 12 hr): 2.01
Gpr19 (probe set 1421756_PM_a_at) differential expression (kidney, 12 hr): 1.50
Gpr135 (probe set 1441944_PM_s_at) differential expression (kidney, 12 hr): 1.59
Gpt (probe set 1426502_PM_s_at) differential expression (kidney, 12 hr): 1.51
Gsta2 (probe set 1421040_PM_a_at) differential expression (kidney, 12 hr): 1.61
Gstp1 (probe set 1449575_PM_a_at) differential expression (kidney, 12 hr): 1.54
Kif20b (probe set 1439695_PM_a_at) differential expression (kidney, 12 hr): −2.85
Klk1b21 (probe set 1451607_PM_at) differential expression (kidney, 12 hr): 1.57
Maf (probe set 1437473_PM_at) differential expression (kidney, 12 hr): 1.53
Mthfd2 (1419253_PM_at) differential expression (kidney, 12 hr): 1.65
Nek6 (probe set 1423596_PM_at) differential expression (kidney, 12 hr): 1.69
Nfia (probe set 1446742_PM_at) differential expression (kidney, 12 hr): −1.74
Orc4 (probe set 1431172_PM_at) differential expression (kidney, 12 hr): 1.50
Pigl (probe set 1440965_PM_at) differential expression (kidney, 12 hr): 1.52
Pnkd (probe set 1418746_PM_at) differential expression (kidney, 12 hr): 1.51
Rcor3 (probe set 1428343_PM_at) differential expression (kidney, 12 hr): −1.51
Reep6 (probe set 1430128_PM_a_at) differential expression (kidney, 12 hr): 1.51
Slc5a3 (probe set 1440227_PM_at) differential expression (kidney, 12 hr): −1.50
Slc6a4 (probe set 1417150_PM_at) differential expression (kidney, 12 hr): 1.58
Slc8a1 (probe set 1437675_PM_at) differential expression (kidney, 12 hr): −1.86
Slc38a3 (probe set 1418706_PM_at) differential expression (kidney, 12 hr): 1.81
Slc39a8 (probe set 1448482_PM_at) differential expression (kidney, 12 hr): −1.55
Slc48a1 (probe set 1450410_PM_a_at) differential expression (kidney, 12 hr): 1.53
Slco2a1 (probe set 1444242_PM_at) differential expression (kidney, 12 hr): 1.63
Smarca2 (probe set 1452333_PM_at) differential expression (kidney, 12 hr): −1.60
Tfrc (probe set 1422966_PM_a_at) differential expression (kidney, 12 hr): 1.51
Tmie (probe set 1443964_PM_at) differential expression (kidney, 12 hr): 1.65
Trim16 (probe set 1460629_PM_at) differential expression (kidney, 12 hr): 1.51
FC 1200003I10Rik /// 1200015M12Rik /// A130040M12Rik /// E430024C06Rik 1427932_PM_s_at (kidney, 100MMF-vs-Veh, 12 h): 1.54
FC 1200016E24Rik (1452418_PM_at) (kidney, 100MMF-vs-Veh, 12 h): 1.50
FC 1300002K09Rik 1453234_PM_at (kidney, 100MMF-vs-Veh, 12 h): 1.88
FC 1441333_PM_at (no gene symbol) (kidney, 100MMF-vs-Veh, 12 h): −2.46
FC 1441971_PM_at (no gene symbol) (kidney, 100MMF-vs-Veh, 12 h): 1.51
FC 1444920_PM_at (no gene symbol) (kidney, 100MMF-vs-Veh, 12 h): −1.56
FC 1447396_PM_at (no gene symbol) (kidney, 100MMF-vs-Veh, 12 h): −1.52
FC 1455722_PM_at (no gene symbol) (kidney, 100MMF-vs-Veh, 12 h): −1.53
FC 1458599_PM_at (no gene symbol) (kidney, 100MMF-vs-Veh, 12 h): 1.57
FC 1459091_PM_at (no gene symbol) (kidney, 100MMF-vs-Veh, 12 h): 2.38
FC 2010003K11Rik (1424626_PM_at) (kidney, 100MMF-vs-Veh, 12 h): 1.65
FC 2310043L19Rik (1440008_PM_at) (kidney, 100MMF-vs-Veh, 12 h): 1.86
FC 3110009E18Rik (1428023_PM_at) (kidney, 100MMF-vs-Veh, 12 h): 1.58
FC 4933427G17Rik 1431905_PM_s_at (kidney, 100MMF-vs-Veh, 12 h): 1.59
